Like-named read-outs stand apart in the source and are kept apart here. Where a SMILES comes first, the peptide text is derived from it. [ ]: non-standard residue; d: D form. Orn(N5-OH,N5-Ac) = CC(=O)N(O)CCC[C@H](N)C(=O)O
Assays:
KpnFyuA = test: Fluorescence quenching binding to KpnFyuA-FM sensor; set-up: species or system Klebsiella pneumoniae; conditions: apo (parenthetic value); S631C; read-out: Affinity (KD) of sensor KpnFyuA, apo siderophore
Protocol: (§1) Fluorescence modifications. For modifications with maleimide fluorophores, we inoculated E. coli strains OKN3, OKN13, OKN359 or OKN1359, harboring plasmids that encoded a Cys mutant LGP, from frozen stocks into LB, grew them overnight and sub-cultured at 1% into iron-deficient MOPS minimal media, with shaking (200 rpm) at 37° C. for 10-12 h, until late exponential phase. After collecting the cells by centrifugation at 7500×g for 15 min, and washing with 50 mM NaHPO4, pH 6.7, we labeled the Cys-mutant LGP with 5 μM FM in 50 mM NaHPO4, pH 6.7 for 15 min at 37° C. FM. We terminated the labeling reactions with 100 μM β-mercaptoethanol. After collecting the fluoresceinated cells by centrifugation at 7500×g for 15 min, and washing with 50 mM NaHPO4, pH 6.7, we re-suspended them in PBS plus 0.2% glucose. We either immediately used the labeled cells in spectroscopic experiments, or rested them on ice (up to 24 h), or added glycerol to 15% and stored them (indefinitely) as 1 mL aliquots at −70° C. […] After electrophoresis, we first visualized the fluorescence labeling on a Typhoon 8600 Biomolecular Scanner (GE/Amersham), and then stained the gels with Coomassie blue R (153).
(§2) Fluorescence spectroscopic binding determinations. We observed fluorophore-labeled cells in an SLM AMINCO 8100 fluorescence spectrometer, upgraded with an OLIS operating system and software (OLIS SpectralWorks, OLIS Inc., Bogart, GA), to control its shutters, polarizers and data collection. We also utilized an OLIS Clarity fluorescence spectrometer for fluorescence assays. For binding determinations we deposited 2.5×10^7 labeled cells in a quartz cuvette (final volume, 2 mL) with stirring at 37° C., measured the initial fluorescence (F0), and then added increasing concentrations of an iron complex while monitoring the quenching of fluorescence emissions (F) at 520 nm. We performed each measurement in triplicate and calculated the mean value of F/F0 at each ligand concentration. […]
(§3) Table 1 lists KD values from analysis of fluorescence quenching with ferric or apo (parenthetic values) siderophores or porphyrins. […]

EcoFhuA = EcoFhuA (Escherichia coli, UniProt P06971); test: Fluorescence quenching binding to EcoFhuA-FM sensor
Protocol: (§4) Fluorescence modifications. For modifications with maleimide fluorophores, we inoculated E. coli strains OKN3, OKN13, OKN359 or OKN1359, harboring plasmids that encoded a Cys mutant LGP, from frozen stocks into LB, grew them overnight and sub-cultured at 1% into iron-deficient MOPS minimal media, with shaking (200 rpm) at 37° C. for 10-12 h, until late exponential phase. After collecting the cells by centrifugation at 7500×g for 15 min, and washing with 50 mM NaHPO4, pH 6.7, we labeled the Cys-mutant LGP with 5 μM FM in 50 mM NaHPO4, pH 6.7 for 15 min at 37° C. FM. We terminated the labeling reactions with 100 μM β-mercaptoethanol. After collecting the fluoresceinated cells by centrifugation at 7500×g for 15 min, and washing with 50 mM NaHPO4, pH 6.7, we re-suspended them in PBS plus 0.2% glucose. We either immediately used the labeled cells in spectroscopic experiments, or rested them on ice (up to 24 h), or added glycerol to 15% and stored them (indefinitely) as 1 mL aliquots at −70° C. In the latter case, after thawing the labeled cells we pelleted them by centrifugation in a microfuge, washed them once with and re-suspended them in PBS containing 0.2% glucose. Lastly, for evaluation of protein expression or the extent of FM-labeling we solubilized aliquots of the cell suspensions with sample buffer, and subjected them to SDS-PAGE. After electrophoresis, we first visualized the fluorescence labeling on a Typhoon 8600 Biomolecular Scanner (GE/Amersham), and then stained the gels with Coomassie blue R (153).
as §2, with “concentration. We plotted 1−F/F0 vs [ligand] and analyzed the data by the 1-site binding model of Grafit 6.0.12 (Erithacus Ltd. West Sussex, UK), that fits data to a single site saturation curve, where the amount of ligand bound is plotted as a function of the amount free:” for “concentration.”
as §3

AbaPiuA = AbaPiuA (Acinetobacter baumannii, UniProt D0CAH3, S724C); test: Fluorescence quenching binding to AbaPiuA-FM sensor
Protocol: as §1, §2, §3

AbaBauA = AbaBauA (Acinetobacter baumannii, UniProt Q76HJ9, S407C); test: Fluorescence quenching binding to AbaBauA-FM sensor
Protocol: as §1, with “β-mercaptoethanol.” for “β-mercaptoethanol. After collecting the fluoresceinated cells by centrifugation at 7500×g for 15 min, and washing with 50 mM NaHPO4, pH 6.7, we re-suspended them in PBS plus 0.2% glucose. We either immediately used the labeled cells in spectroscopic experiments, or rested them on ice (up to 24 h), or added glycerol to 15% and stored them (indefinitely) as 1 mL aliquots at −70° C.”
(§5) Fluorescence spectroscopic binding determinations. We observed fluorophore-labeled cells in an SLM AMINCO 8100 fluorescence spectrometer, upgraded with an OLIS operating system and software (OLIS SpectralWorks, OLIS Inc., Bogart, GA), to control its shutters, polarizers and data collection. We also utilized an OLIS Clarity fluorescence spectrometer for fluorescence assays. […] We performed each measurement in triplicate and calculated the mean value of F/F0 at each ligand concentration. […]

KpnIroN = KpnIroN (Klebsiella pneumoniae, UniProt A0ACD7U953, T234C); test: Fluorescence quenching binding to KpnIroN-FM sensor; conditions: read-out: Affinity (KD) of sensor KpnIroN; ferric complexes; Cys residue T210C, FM-labeled; NB = no binding
Protocol: as §1, with “β-mercaptoethanol.” for “β-mercaptoethanol. After collecting the fluoresceinated cells by centrifugation at 7500×g for 15 min, and washing with 50 mM NaHPO4, pH 6.7, we re-suspended them in PBS plus 0.2% glucose. We either immediately used the labeled cells in spectroscopic experiments, or rested them on ice (up to 24 h), or added glycerol to 15% and stored them (indefinitely) as 1 mL aliquots at −70° C.”
as §5

EcoCir = target: T1, EcoCir (Escherichia coli, UniProt P17315, G512C); test: biochemical; assay type: binding
T1 construct: expressed in transfected cells; host or cells: E. coli OKN3/OKN13/OKN359/OKN1359 carrying a pITS23 derivative
Protocol: as §4
(§6) Fluorescence spectroscopic binding determinations. We observed fluorophore-labeled cells in an SLM AMINCO 8100 fluorescence spectrometer, upgraded with an OLIS operating system and software (OLIS SpectralWorks, OLIS Inc., Bogart, GA), to control its shutters, polarizers and data collection. We also utilized an OLIS Clarity fluorescence spectrometer for fluorescence assays. For binding determinations we deposited 2.5×10^7 labeled cells in a quartz cuvette (final volume, 2 mL) with stirring at 37° C., measured the initial fluorescence (F0), and then added increasing concentrations of an iron complex while monitoring the quenching of fluorescence emissions (F) at 520 nm. We performed each measurement in triplicate and calculated the mean value of F/F0 at each ligand concentration. We plotted 1−F/F0 vs [ligand] and analyzed the data by the 1-site binding model of Grafit 6.0.12 (Erithacus Ltd. West Sussex, UK), that fits data to a single site saturation curve, where the amount of ligand bound is plotted as a function of the amount free:
(§7) These plots yielded KD values for each of the receptor-ligand interactions, with associated standard errors.
(§8) Table 1 lists KD values from analysis of fluorescence quenching with ferric or apo (parenthetic values) siderophores or porphyrins. For each determination, we measured the extent of fluorescence quenching of an FLGP, when exposed to sequentially increasing concentrations of the listed metal complexes, as plotted in FIGS. 2-4. We performed each experiment 2 or 3 times. The tabulated KD values are from single, representative experiments, in which we collected each data point in triplicate, plotted F/F0 vs [ligand] for each quenching titration, and fitted the curves to a single site binding model using Grafit 6.012 (Erithacus Ltd, […], UK).

EcoFiu = target: T2, EcoFiu (Escherichia coli, UniProt P75780, A694C); test: biochemical; assay type: binding
T2 construct: expressed in transfected cells; host or cells: E. coli OKN3/OKN13/OKN359/OKN1359 carrying a pITS23 derivative
Protocol: as §4, §6, §7, §8

AbaPirA = target: T3, AbaPirA (Acinetobacter baumannii, UniProt D0C8V9); conditions: read-out: Affinity (KD) of sensor AbaPirA; ferric complexes; Cys residue S328C, FM-labeled; NB = no binding
T3 construct: fused on or other part: EcoFepA signal peptide in place of its own (cleaved on export); fluorescein maleimide on the engineered Cys
Protocol: For modifications with maleimide fluorophores, we inoculated E. coli strains OKN3, OKN13, OKN359 or OKN1359, harboring plasmids that encoded a Cys mutant LGP, from frozen stocks into LB, grew them overnight and sub-cultured at 1% into iron-deficient MOPS minimal media, with shaking (200 rpm) at 37° C. for 10-12 h, until late exponential phase. After collecting the cells by centrifugation at 7500×g for 15 min, and washing with 50 mM NaHPO4, pH 6.7, we labeled the Cys-mutant LGP with 5 μM FM in 50 mM NaHPO4, pH 6.7 for 15 min at 37° C. […] We terminated the labeling reactions with 100 μM β-mercaptoethanol. […]
We also utilized an OLIS Clarity fluorescence spectrometer for fluorescence assays. […] We performed each measurement in triplicate and calculated the mean value of F/F0 at each ligand concentration. We plotted 1−F/F0 vs [ligand] and analyzed the data by the 1-site binding model of Grafit 6.0.12 (Erithacus Ltd. West Sussex, UK), that fits data to a single site saturation curve, where the amount of ligand bound is plotted as a function of the amount free:
For each determination, we measured the extent of fluorescence quenching of an FLGP, when exposed to sequentially increasing concentrations of the listed metal complexes, as plotted in FIGS. 2-4. […]

EcoIutA = target: T4, EcoIutA (Escherichia coli, UniProt P14542, T573C); test: Fluorescence quenching binding to EcoIutA-FM sensor; conditions: other ferric hydroxamates
T4 construct: expressed in transfected cells; host or cells: E. coli OKN3/OKN13/OKN359/OKN1359 carrying a pITS23 derivative
Protocol: as §4
as §6, with “free: […]” for “free:”
as §3

KpnFepA2380 = test: Fluorescence quenching binding to KpnFepA2380-FM sensor; set-up: species or system Klebsiella pneumoniae; conditions: ferric complexes; Cys residue T255C, FM-labeled; NB = no binding; read-out: Affinity (KD) of sensor KpnFepA 2380
Protocol: as §1, with “β-mercaptoethanol.” for “β-mercaptoethanol. After collecting the fluoresceinated cells by centrifugation at 7500×g for 15 min, and washing with 50 mM NaHPO4, pH 6.7, we re-suspended them in PBS plus 0.2% glucose. We either immediately used the labeled cells in spectroscopic experiments, or rested them on ice (up to 24 h), or added glycerol to 15% and stored them (indefinitely) as 1 mL aliquots at −70° C.”
as §5

PaeFpvA = target: T5, PaeFpvA (Pseudomonas aeruginosa, UniProt P48632, T660C); test: Fluorescence quenching binding to PaeFpvA-FM sensor; conditions: secondary ligands
T5 construct: expressed in transfected cells; host or cells: E. coli OKN3/OKN13/OKN359/OKN1359 carrying a pITS23 derivative
Protocol: as §1, with “β-mercaptoethanol.” for “β-mercaptoethanol. After collecting the fluoresceinated cells by centrifugation at 7500×g for 15 min, and washing with 50 mM NaHPO4, pH 6.7, we re-suspended them in PBS plus 0.2% glucose. We either immediately used the labeled cells in spectroscopic experiments, or rested them on ice (up to 24 h), or added glycerol to 15% and stored them (indefinitely) as 1 mL aliquots at −70° C.”
as §5

CRE/ESKAPE pathogens = test: Decoy sensor measurements of metal complex uptake by bacteria; assay type: cell-based
Description: Fluorescence spectroscopic uptake measurements. We employed FD sensors to monitor TonB-dependent uptake of various siderophores by bacterial pathogens. In the fluorescence spectroscopic uptake studies E. coli OKN13 (ΔtonB, ΔfepA) or OKN1359 (ΔtonB, Δfiu, ΔfepA, Δcir) were host strains for pITS23 derivatives carrying single Cys mutants of an LGP of interest. The FLGP were decoy sensors that monitored ferric siderophore uptake by test strains. For each assay we used 10^7 sensor cells (e.g., OKN13/pFepA-FM (53)) in a 2 mL quartz cuvette containing PBS+0.2% glucose at 37° C. After recording fluorescence intensity for 100 seconds, we added an iron complex (e.g., FeEnt) at a final concentration of ˜10 nM. After incubating the sample for 100 seconds, during which time fluorescence was quenched (e.g., ˜60% quenching for EcoFepA_A698C-FM), we added 0.5-2×10^7 cells of the test strain (E. coli MG1655, K. pneumoniae Kp52.145, A. baumannii 17978, P. aeruginosa PA01, E. cloacae) and monitored the time-course of fluorescence emissions at 520 nm for 15-40 minutes, with stirring.

SMILES: CC(C)(C1=N[C@@](C)(C(=O)O)CS1)[C@H](O)[C@@H]1CSC([C@H]2CSC(c3ccccc3O)=N2)N1 (stereo partly drawn) [Ybt, yersiniabactin]
- Kd (KpnFyuA): 120 nM

SMILES: CC(=O)N(O)CCC[C@@H]1NC(=O)CNC(=O)CNC(=O)CNC(=O)[C@H](CCCN(O)C(C)=O)NC(=O)[C@H](CCCN(O)C(C)=O)NC1=O [apoFc] (cyclo(GGG[Orn(N5-OH,N5-Ac)][Orn(N5-OH,N5-Ac)][Orn(N5-OH,N5-Ac)]))
- Kd (EcoFhuA; read-out: Affinity (KD) of sensor EcoFhuA, apo siderophore, apo (parenthetic value), D396C): 200 nM

SMILES: CC(C)(O/N=C(\C(=O)N[C@@H]1C(=O)N2C(C(=O)[O-])=C(C[N+]3(CCNC(=O)c4ccc([O-])c([O-])c4Cl)CCCC3)CS[C@H]12)c1csc(N)n1)C(=O)[O-].[Fe+3] [FeFDC]
- Kd (AbaPiuA): 57000 nM
- Kd (AbaBauA): 181000 nM
- Kd (KpnIroN): 580 nM
- Kd (EcoCir): 60 nM
- Kd (EcoFiu): 540 nM
- Kd (AbaPirA): 4800 nM

SMILES: O=C(N[C@H]1COC(=O)[C@@H](NC(=O)c2cc([C@@H]3O[C@H](CO)[C@@H](O)[C@H](O)[C@H]3O)cc(O)c2[O-])COC(=O)[C@@H](NC(=O)c2cc([C@@H]3O[C@H](CO)[C@@H](O)[C@H](O)[C@H]3O)cc(O)c2[O-])COC1=O)c1cccc(O)c1[O-].[Fe+3] [FeGEnt]
- Binding by AbaPiuA (AbaPiuA): did not bind

SMILES: C/C(=C\C(=O)N(O)CCC[C@@H]1NC(=O)CNC(=O)[C@H](CO)NC(=O)[C@H](CO)NC(=O)[C@H](CCCN(O)C(=O)/C=C(\C)CC(=O)O)NC(=O)[C@H](CCCN(O)C(=O)/C=C(\C)CC(=O)O)NC1=O)CC(=O)O.[Fe+3] [FcA]
- Kd (EcoFhuA; read-out: Affinity (KD) of sensor EcoFhuA, ferric complexes, Cys residue D396C, FM-labeled, NB = no binding): 60 nM
- Binding by IutA (EcoIutA): did not measurably bind

SMILES: O=C(N[C@H]1COC(=O)[C@@H](NC(=O)c2cccc([O-])c2[O-])COC(=O)[C@@H](NC(=O)c2cccc([O-])c2[O-])COC1=O)c1cccc([O-])c1[O-].[Fe+3] [FeEnt, ferric enterobactin]
- Kd (KpnFepA2380): 12800 nM
- Binding by PaeFpvA (PaeFpvA): weakly bound
- Transport rate (CRE/ESKAPE pathogens; iron deficient Gram (−) bacteria with maximally expressed chromosomal FepA): ~50 pMol/10^9 cells/min

SMILES: CC(=O)N([O-])CCCC[C@H](NC(=O)CC(O)(CC(=O)N[C@@H](CCCCN([O-])C(C)=O)C(=O)O)C(=O)[O-])C(=O)O.[Fe+3] [FeAbn, ferric aerobactin]
- TonB-dependent uptake by test strains (CRE/ESKAPE pathogens; decoy sensors in TonB-deficient E. coli, 37° C., strains grown in iron-deficient MOPS): uptake of FeAbn by all the strains except A. baumannii
